# According to US6703409B2, “2′-Halo-3′,5′-dialkoxyphen-1′-yl-imino-2-imidazolidine and the use thereof as a drug” (Boehringer Ingelheim Pharma GmbH & Co KG, priority 2002, dated 2004):
# Tests used:
# [1] = target: CYP2D6 (Homo sapiens, UniProt P10635); experiment: Metabolism by the enzyme CYP2D6; format: in vitro ADME; settings: CYP2D6, after 30 minutes
# Experimental: To determine the metabolism the enzyme CYP2D6 was reacted with 2′-Chloro-3′,5′-dimethoxyphen-1′-yl-imino-2-imidazolidine. After 30 minutes 2.4% of the substance had been broken down by the enzyme.
# [2] = tested on: isolated dog femoral artery; experiment: Maximum contraction in the isolated dog femoral artery compared with noradrenaline; settings: as percentage of contraction compared with noradrenaline
# From the text: (§1) The maximum contraction in the isolated dog femoral artery and the human urethra are given as percentages of contraction compared with noradrenaline.
# [3] = tested on: human urethra; experiment: Maximum contraction in the human urethra compared with noradrenaline; settings: as percentage of contraction compared with noradrenaline
# From the text: as §1
# Chain of CYP2D6 (P10635 whole entry, species assumed): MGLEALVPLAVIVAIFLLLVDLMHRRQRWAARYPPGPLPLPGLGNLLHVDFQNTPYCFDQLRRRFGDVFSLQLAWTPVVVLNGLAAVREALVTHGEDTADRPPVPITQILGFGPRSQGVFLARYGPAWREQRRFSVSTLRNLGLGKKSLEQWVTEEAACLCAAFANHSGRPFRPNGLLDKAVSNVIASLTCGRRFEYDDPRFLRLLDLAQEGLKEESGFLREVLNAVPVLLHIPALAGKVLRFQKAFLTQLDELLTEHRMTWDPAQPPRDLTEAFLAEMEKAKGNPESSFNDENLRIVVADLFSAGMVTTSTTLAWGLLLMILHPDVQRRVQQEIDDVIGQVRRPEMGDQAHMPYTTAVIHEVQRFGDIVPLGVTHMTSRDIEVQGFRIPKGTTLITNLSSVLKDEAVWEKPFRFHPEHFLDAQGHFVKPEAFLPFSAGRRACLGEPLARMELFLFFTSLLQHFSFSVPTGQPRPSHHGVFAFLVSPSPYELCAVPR
structure (smiles),measurement,setting,value
"COc1cc(N=C2NCCN2)c(Cl)c(OC)c1 [2′-chloro-3′,5′-dimethoxyphen-1′-yl-imino-2-imidazolidine]",substance broken down by the enzyme,[1],2.4%
same,activity in the dog,[2],65%
same,activity on human urethra,[3],66.2%
